From patent publication US10000488B2, “Heterocyclic compound” (TAKEDA PHARMACEUTICAL COMPANY LIMITED, priority 2014, dated 2018) come the findings set out here.

For experiment [1], the target named is T1, RORγt (Homo sapiens, UniProt P51449).
T1 sequence (P51449 1-497 isoform P51449-2): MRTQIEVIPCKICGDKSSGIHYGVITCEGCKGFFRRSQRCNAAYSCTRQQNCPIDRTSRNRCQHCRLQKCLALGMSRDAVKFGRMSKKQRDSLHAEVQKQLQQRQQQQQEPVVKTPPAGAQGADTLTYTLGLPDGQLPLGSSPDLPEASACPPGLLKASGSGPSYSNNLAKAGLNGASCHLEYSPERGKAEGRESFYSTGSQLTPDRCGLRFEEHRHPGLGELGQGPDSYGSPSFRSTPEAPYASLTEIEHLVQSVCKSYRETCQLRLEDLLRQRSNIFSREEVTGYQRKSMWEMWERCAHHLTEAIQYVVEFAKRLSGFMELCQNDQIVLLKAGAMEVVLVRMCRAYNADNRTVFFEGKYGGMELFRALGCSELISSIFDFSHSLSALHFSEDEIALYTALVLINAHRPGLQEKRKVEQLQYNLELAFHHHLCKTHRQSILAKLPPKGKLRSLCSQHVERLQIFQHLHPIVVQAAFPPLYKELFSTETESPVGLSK
In words: Cofactor recruitment test (Alpha Screen, biotinylated SRC-1 peptide). Type of experiment: biochemical. Particulars: read-out: signal value inhibitory rate (%) at test compound 1 μM. Here is the method: Cofactor Recruitment Test
Cofactor recruitment test was performed by Alpha Screen (Histidine Detection Kit, PerkinElmer) method. First, a test compound was diluted with an assay buffer (50 mM Tris-HCl (pH 7.5), 50 mM KCl, 1 mM DTT, 0.1% BSA) and added to a 384 well plate by 5 μL. […] The mixture was stood in a dark place for 1 hr, and the signal value was measured by Envision (PerkinElmer).

Experiment [2] addresses T1, RORγt. The experiment can be described thus: Jurkat reporter test (human IL-17 ROR response element luciferase reporter, RORγt vector). To be noted: test compound 3 μM; Jurkat cells; read-out: luminescence level inhibitory rate (%) at test compound 3 μM. It counts as cell-based. The essentials: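 Jurkat cells were electroporated (1350 V, 10 ms, 3 pulses) with the reporter constructs and plated in RPMI with 10% lipid-reduced FCS, 10 mM HEPES pH 7.5 and 5 μM lovastatin. After overnight culture with compound, luciferase activity was measured by luminescence following a 10 min room-temperature incubation with Bright-Glo.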

Experiment [3] has as its target T1, RORγt. The experiment can be described thus: RORγt binding test using fluorescent-labeled synthetic ligand (TR-FRET). Particulars: test compound 1 μM; read-out: binding inhibitory rate (%) of fluorescent-labeled synthetic ligand to RORγt at test compound 1 μM. The essentials:
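Compound displacement of a fluorescent-labeled synthetic ligand from His-tagged RORγt was read by TR-FRET with a terbium anti-His antibody. Buffer was 20 mM Tris-HCl pH 7.5, 100 mM NaCl, 1 mM DTT and 0.1% BSA, with stocks of 240 nM protein, 12 μM ligand and 8 nM antibody (pre-mix, not final). Incubations were 20 min plus 20 min at room temperature, with excitation at 320 nm, emission at 520 nm and a 100 μs delay.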

Consider `CC(C)n1c(=O)n(CC2CC2)c(=O)c2cc(NC(=O)N3CCC[C@@H](N4Cc5ccc(Cl)cc5C4=O)C3)c(F)cc21` [Example 336, (3R)-3-(6-chloro-1-oxo-1,3-dihydro-2H-isoindol-2-yl)-N-(3-(cyclopropylmethyl)-7-fluoro-1-isopropyl-2,4-dioxo-1,2,3,4-tetrahydroquinazolin-6-yl)piperidine-1-carboxamide], for which the inhibition at 1 µM at RORγt [1] was found to be 106%; on RORγt [3] it was 102%. For the same compound, the inhibition at 3 µM on RORγt [2] came to 106%.

With `CC(C)n1c(=O)n(CC2CC2)c(=O)c2cc(NC(=O)N3CCC[C@@H](NC(=O)c4ccc5c(c4)CCN(C(=O)OC(C)(C)C)C5)C3)c(F)cc21` [Example 340, tert-butyl 6-(((3R)-1-((3-(cyclopropylmethyl)-7-fluoro-1-isopropyl-2,4-dioxo-1,2,3,4-tetrahydroquinazolin-6-yl)carbamoyl)piperidin-3-yl)carbamoyl)-3,4-dihydroisoquinoline-2 (1H)-carboxylate], the inhibition at 1 µM came out at 92% at RORγt [1] and 98% on RORγt [3]. Further, the inhibition at 3 µM on RORγt [2] is 107%.

As to `COC(=O)N1Cc2ccc(C(=O)N[C@@H]3CCCN(C(=O)Nc4cc5c(=O)n(CC6CC6)c(=O)n(C(C)C)c5cc4F)C3)cc2C1` [Example 343, methyl 5-(((3R)-1-((3-(cyclopropylmethyl)-7-fluoro-1-isopropyl-2,4-dioxo-1,2,3,4-tetrahydroquinazolin-6-yl)carbamoyl)piperidin-3-yl)carbamoyl)-1,3-dihydro-2H-isoindole-2-carboxylate], the inhibition at 1 µM is 107% on RORγt [1] and 101% on RORγt [3]. Moreover, on RORγt [2], the inhibition at 3 µM stood at 108%.

In the case of `CC(C)n1c(=O)n(CC2CC2)c(=O)c2cc(NC(=O)N3CCO[C@@H](C(=O)Nc4cc(Cl)c(C#N)cc4F)C3)c(F)cc21` [Example 347, (2R)—N^2-(5-chloro-4-cyano-2-fluorophenyl)-N^4-(3-(cyclopropylmethyl)-7-fluoro-1-isopropyl-2,4-dioxo-1,2,3,4-tetrahydroquinazolin-6-yl)morpholine-2,4-dicarboxamide], the inhibition at 1 µM at RORγt [1] amounted to 107%; at RORγt [3], 102%. Also, on RORγt [2], the inhibition at 3 µM came out at 107%.

`CC(C)n1c(=O)n(CC2CC(F)(F)C2)c(=O)c2cc(NC(=O)N3CCO[C@@H](C(=O)Nc4ccc(C#N)c(Cl)c4)C3)c(F)cc21` [Example 350, (2R)—N^2-(3-chloro-4-cyanophenyl)-N^4-(3-((3,3-difluorocyclobutyl)methyl)-7-fluoro-1-isopropyl-2,4-dioxo-1,2,3,4-tetrahydroquinazolin-6-yl)morpholine-2,4-dicarboxamide]: the inhibition at 1 µM at RORγt [1] was 108%; at RORγt [3], 102%. For the same compound, the inhibition at 3 µM at RORγt [2] is 107%.

In the case of `CC(C)n1c(=O)n(CC2CC(F)(F)C2)c(=O)c2cc(NC(=O)N3CCO[C@@H](C(=O)Nc4cc(Cl)c(C#N)cc4F)C3)c(F)cc21` [Example 351, (2R)—N^2-(5-chloro-4-cyano-2-fluorophenyl)-N^4-(3-((3,3-difluorocyclobutyl)methyl)-7-fluoro-1-isopropyl-2,4-dioxo-1,2,3,4-tetrahydroquinazolin-6-yl)morpholine-2,4-dicarboxamide], the figures for the inhibition at 1 µM at RORγt [1] and at RORγt [3] were 108% and 101%, respectively. Moreover, the inhibition at 3 µM on RORγt [2] amounted to 106%.

Regarding `CC(C)n1c(=O)n(C[C@@H]2CCCO2)c(=O)c2cc(NC(=O)N3CCO[C@@H](C(=O)Nc4ccc(C#N)c(Cl)c4)C3)c(F)cc21` [Example 357, (2R)—N^2-(3-chloro-4-cyanophenyl)-N^4-(7-fluoro-1-isopropyl-2,4-dioxo-3-((2S)-tetrahydrofuran-2-ylmethyl)-1,2,3,4-tetrahydroquinazolin-6-yl)morpholine-2,4-dicarboxamide], the inhibition at 1 µM was determined as 107% on RORγt [1] and 101% on RORγt [3]. In addition, the inhibition at 3 µM at RORγt [2] is 106%.

As to `CC(C)n1c(=O)n(C[C@@H]2CCCO2)c(=O)c2cc(NC(=O)N3CCO[C@@H](C(=O)Nc4cc(Cl)c(C#N)cc4F)C3)c(F)cc21` [Example 358, (2R)—N^2-(5-chloro-4-cyano-2-fluorophenyl)-N^4-(7-fluoro-1-isopropyl-2,4-dioxo-3-((2S)-tetrahydrofuran-2-ylmethyl)-1,2,3,4-tetrahydroquinazolin-6-yl)morpholine-2,4-dicarboxamide], the inhibition at 1 µM on RORγt [1] turned out to be 107%; at RORγt [3], 101%. Besides, the inhibition at 3 µM at RORγt [2] was 106%.

`CC(C)n1c(=O)n(CC2CC(F)(F)C2)c(=O)c2cc(NC(=O)N3CCC[C@@H](n4cnc5cc(C#N)ccc5c4=O)C3)c(F)cc21` [Example 363, (3R)-3-(7-cyano-4-oxoquinazoline-3(4H)-yl)-N-(3-((3,3-difluorocyclobutyl)methyl)-7-fluoro-1-isopropyl-2,4-dioxo-1,2,3,4-tetrahydroquinazolin-6-yl)piperidine-1-carboxamide]: the results for the inhibition at 1 µM on RORγt [1] and at RORγt [3] were 106% and 102%, respectively. In addition, the inhibition at 3 µM on RORγt [2] was 107%.
